Data: patent US11292801B2, “Calpain modulators and therapeutic uses thereof” (Blade Therapeutics, Inc., priority 2016, dated 2022)
Where two headings read alike, the source gives them in different places.

What was measured:
[1] = rcm bond
Human Calpain 1/NS1 = biological target: T1, Human Calpain 1/NS1 (Homo sapiens, UniProt P07384); experiment: Biochemical inhibition of calpain 1, continuous fluorescence (FRET substrate) assay; conditions: mean, read-out: Human Calpain 1/NS1 IC50 (nM)_MEAN
T1 sequence (P07384 1-714): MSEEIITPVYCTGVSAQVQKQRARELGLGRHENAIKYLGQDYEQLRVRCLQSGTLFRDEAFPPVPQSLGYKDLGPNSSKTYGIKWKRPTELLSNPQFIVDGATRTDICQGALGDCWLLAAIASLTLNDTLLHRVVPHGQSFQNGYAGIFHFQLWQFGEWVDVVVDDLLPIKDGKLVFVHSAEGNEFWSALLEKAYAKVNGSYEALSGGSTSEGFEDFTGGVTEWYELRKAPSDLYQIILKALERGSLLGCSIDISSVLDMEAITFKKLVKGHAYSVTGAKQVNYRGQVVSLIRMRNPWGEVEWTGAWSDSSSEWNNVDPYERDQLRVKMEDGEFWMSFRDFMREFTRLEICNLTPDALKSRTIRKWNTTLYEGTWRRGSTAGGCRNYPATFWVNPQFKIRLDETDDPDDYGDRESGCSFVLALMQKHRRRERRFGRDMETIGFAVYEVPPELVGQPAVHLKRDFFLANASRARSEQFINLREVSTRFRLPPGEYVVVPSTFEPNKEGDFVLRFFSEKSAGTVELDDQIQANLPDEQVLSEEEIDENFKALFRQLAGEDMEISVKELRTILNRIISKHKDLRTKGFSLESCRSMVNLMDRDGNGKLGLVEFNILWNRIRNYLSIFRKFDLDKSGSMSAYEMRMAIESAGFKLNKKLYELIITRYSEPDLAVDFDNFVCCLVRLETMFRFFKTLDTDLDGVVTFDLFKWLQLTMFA
T1 sequence (P04632 1-268 partner): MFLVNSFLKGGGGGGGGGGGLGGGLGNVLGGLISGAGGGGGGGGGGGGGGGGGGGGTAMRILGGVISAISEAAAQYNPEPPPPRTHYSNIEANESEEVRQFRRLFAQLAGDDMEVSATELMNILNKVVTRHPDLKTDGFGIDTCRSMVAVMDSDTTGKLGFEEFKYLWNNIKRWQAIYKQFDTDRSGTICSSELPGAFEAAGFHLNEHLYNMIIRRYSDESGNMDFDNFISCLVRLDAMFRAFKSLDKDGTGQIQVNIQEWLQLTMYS
Outline: (§1)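 Continuous FRET assay with 5-FAM/QXL520 peptide substrate in 50 mM Tris pH ~7.5, 100 mM NaCl, 1 mM DTT. Enzyme preincubated with inhibitor at 25C; reaction started with substrate plus CaCl2, read at 490/520 nm for 10 min. Rates from slopes over 1-5 min, IC50 from 4-parameter logistic fit.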

Human Calpain 9/NS1 = biological target: T2, Human Calpain 9/NS1 (Homo sapiens, UniProt O14815); experiment: Biochemical inhibition of calpain 9, continuous fluorescence (FRET substrate) assay; conditions: mean, read-out: Human Calpain 9/NS1 IC50 (nM)_MEAN
T2 sequence (O14815 1-690): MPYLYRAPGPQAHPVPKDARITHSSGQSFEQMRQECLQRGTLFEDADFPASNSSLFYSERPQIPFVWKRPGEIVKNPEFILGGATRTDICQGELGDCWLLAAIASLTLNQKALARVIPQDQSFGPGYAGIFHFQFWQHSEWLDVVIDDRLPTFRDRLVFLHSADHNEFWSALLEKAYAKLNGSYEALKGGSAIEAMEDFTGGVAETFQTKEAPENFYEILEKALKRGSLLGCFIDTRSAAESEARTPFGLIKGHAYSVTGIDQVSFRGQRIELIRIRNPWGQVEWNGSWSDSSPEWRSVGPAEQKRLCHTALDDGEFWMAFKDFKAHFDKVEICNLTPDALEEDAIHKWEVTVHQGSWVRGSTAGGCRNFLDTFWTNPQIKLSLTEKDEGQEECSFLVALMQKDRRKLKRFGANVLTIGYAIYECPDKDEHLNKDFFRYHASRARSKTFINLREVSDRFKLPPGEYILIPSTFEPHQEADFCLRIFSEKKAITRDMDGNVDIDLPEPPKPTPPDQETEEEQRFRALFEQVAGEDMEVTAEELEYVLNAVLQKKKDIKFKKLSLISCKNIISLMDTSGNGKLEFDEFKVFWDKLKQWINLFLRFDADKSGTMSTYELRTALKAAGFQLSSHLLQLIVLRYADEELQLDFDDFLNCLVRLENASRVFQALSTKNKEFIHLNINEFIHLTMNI
T2 sequence (P04632 1-268 partner): T1 sequence (P04632 1-268 partner)
Outline: as §1

Human Calpain 2/NS1 = biological target: T3, Human Calpain 2/NS1 (Homo sapiens, UniProt P17655); experiment: Biochemical inhibition of calpain 2, continuous fluorescence (FRET substrate) assay; conditions: mean, read-out: Human Calpain 2/NS1 IC50 (nM)_MEAN
T3 sequence (P17655 1-700): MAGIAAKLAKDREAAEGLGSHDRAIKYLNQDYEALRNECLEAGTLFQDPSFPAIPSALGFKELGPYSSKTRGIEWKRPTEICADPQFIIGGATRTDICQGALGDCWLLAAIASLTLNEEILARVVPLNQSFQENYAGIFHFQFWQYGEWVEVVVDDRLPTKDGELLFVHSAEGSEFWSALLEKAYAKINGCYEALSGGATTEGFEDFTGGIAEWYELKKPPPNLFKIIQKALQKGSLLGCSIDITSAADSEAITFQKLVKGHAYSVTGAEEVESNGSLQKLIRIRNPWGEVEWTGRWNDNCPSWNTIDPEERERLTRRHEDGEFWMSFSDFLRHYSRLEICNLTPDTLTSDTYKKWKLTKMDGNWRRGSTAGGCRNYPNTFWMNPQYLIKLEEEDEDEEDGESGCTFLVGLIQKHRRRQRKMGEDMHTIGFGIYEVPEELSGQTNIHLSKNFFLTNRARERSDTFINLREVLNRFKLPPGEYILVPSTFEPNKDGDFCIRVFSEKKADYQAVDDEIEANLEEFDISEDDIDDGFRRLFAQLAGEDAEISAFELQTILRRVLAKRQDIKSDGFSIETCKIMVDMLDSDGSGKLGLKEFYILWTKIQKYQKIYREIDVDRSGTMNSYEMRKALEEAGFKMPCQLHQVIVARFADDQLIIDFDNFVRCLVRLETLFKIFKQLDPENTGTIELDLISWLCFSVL
T3 sequence (P04632 1-268 partner): T1 sequence (P04632 1-268 partner)
Outline: as §1

IC50 (Human Calpain 1/NS1) [nM] | IC50 (Human Calpain 9/NS1) [nM] | IC50 (Human Calpain 2/NS1) [nM] | SMILES | further results
– | – | – | CON(C)C(=O)[C@@H]1CC=CCOCCOCc2ccccc2C(=O)N1 | ring closure, yield of all isomers ([1]; from C=CCOCCOCc1ccccc1C(=O)N[C@@H](CC=C)C(=O)N(C)OC, Grubbs 2nd generation catalyst, DCE, 6.64 mM, 80.0 °C, 10.0 h): 86.7%; ring closure, yield of all isomers ([1]; from C=CCOCCOCc1ccccc1C(=O)N[C@@H](CC=C)C(=O)N(C)OC, Grubbs II, 1,2-dichloroethane, 6.64 mM, 80.0 °C, 10.0 h): 91.3%
– | – | – | CCOC(=O)[C@@H]1CC=CCCCCCc2ccccc2C(=O)N1 | ring closure, yield of all isomers ([1]; from C=CCCCCCc1ccccc1C(=O)N[C@@H](CC=C)C(=O)OCC, Grubbs 2nd generation catalyst, DCM, 8.31 mM, 50.0 °C, 14.0 h): 18.1%
– | – | – | COC(=O)[C@@H]1Cc2ccc(cc2)CC=CCc2cccc(c2)-c2ccn(n2)-c2ncccc2C(=O)N1 | ring closure, yield of all isomers ([1]; from C=CCc1ccc(C[C@H](NC(=O)c2cccnc2-n2ccc(-c3cccc(CC=C)c3)n2)C(=O)OC)cc1, Hoveyda-Grubbs catalyst 1st generation, DCE, 4.94 mM, 90.0 °C, 64.0 h): 43.6%
– | – | – | COC(=O)[C@@H]1Cc2ccc(cc2)OCC=CCOc2cccc(c2)-c2ccn(n2)-c2ncccc2C(=O)N1 | ring closure, yield of all isomers ([1]; from C=CCOc1ccc(C[C@H](NC(=O)c2cccnc2-n2ccc(-c3cccc(OCC=C)c3)n2)C(=O)OC)cc1, Grubbs II, 1,2-dichloroethane, 8.35 mM, 90.0 °C, 48.0 h): 47%
– | – | – | CON(C)C(=O)[C@@H]1CC=CCCCCCc2ccccc2C(=O)N1 | ring closure, yield of all isomers ([1]; from C=CCCCCCc1ccccc1C(=O)N[C@@H](CC=C)C(=O)N(C)OC, Grubbs 2nd generation catalyst, DCM, 6.37 mM, 48.0 °C, 16.0 h): 49.4%
– | – | – | COC(=O)[C@@H]1Cc2ccc(cc2)CC=CCc2ccc3nn(cc3c2)-c2ncccc2C(=O)N1 | ring closure, yield of all isomers ([1]; from C=CCc1ccc(C[C@H](NC(=O)c2cccnc2-n2cc3cc(CC=C)ccc3n2)C(=O)OC)cc1, Zhan catalyst-1B, DCE, 3.09 mM, 90.0 °C, 14.0 h): 19.4%
– | – | – | CON(C)C(=O)[C@@H]1CC=CCCCCCc2ncccc2C(=O)N1 | ring closure, yield of all isomers ([1]; from C=CCCCCCc1ncccc1C(=O)N[C@@H](CC=C)C(=O)N(C)OC, Grubbs catalyst 2nd generation, DCE, 9.93 mM, 95.0 °C, 48.0 h): 65.1%
> 10000 | > 10000 | > 10000 | Cc1cccc(C)c1NC(=O)C(=O)[C@@H]1CCCCOCCOCc2ccccc2C(=O)N1 [Compound 54, (S)—N-(2,6-dimethylphenyl)-2-oxo-2-(12-oxo-1,3,4,6,7,8,9,10,11,12-decahydrobenzo[f][1,4]dioxa[9]azacyclotetradecin-10-yl)acetamide] | –
> 10000 | < 3000 | > 10000 | CCCCNC(=O)C(=O)[C@@H]1CCCCOCCOCc2ccccc2C(=O)N1 [Compound 53, (S)—N-butyl-2-oxo-2-(12-oxo-1,3,4,6,7,8,9,10,11,12-decahydrobenzo[f][1,4]dioxa[9]azacyclotetradecin-10-yl)acetamide] | –
> 10000 | > 10000 | > 10000 | CCOC(=O)CCNC(=O)C(=O)[C@@H]1C/C=C\COCCOCc2ccccc2C(=O)N1 [Compound 60, Ethyl (S,Z)-3-(2-oxo-2-(12-oxo-1,3,4,6,9,10,11,12-octahydrobenzo[f][1,4]dioxa[9]azacyclotetradecin-10-yl)acetamido)propanoate] | –
> 10000 | < 3000 | 3000 to 10000 | Cc1ccc(Cl)cc1CNC(=O)C(=O)C1CCCCOCCOCc2ccccc2C(=O)N1 (stereo not drawn) [Compound 108, N-(5-chloro-2-methylbenzyl)-2-oxo-2-(12-oxo-1,3,4,6,7,8,9,10,11,12-decahydrobenzo[f][1,4]dioxa[9]azacyclotetradecin-10-yl)acetamide] | –
– | – | – | CON(C)C(=O)[C@@H]1CC=CCCOc2ccnc(c2)-c2ccccc2C(=O)N1 | ring closure, yield of all isomers ([1]; from C=CCCOc1ccnc(-c2ccccc2C(=O)N[C@@H](CC=C)C(=O)N(C)OC)c1, Zhan Catalyst-1B, DCE, 2.87 mM, 95.0 °C, 16.0 h): 43.4%
